One assay deals with T1, PARP12 (Homo sapiens, UniProt Q9H0J9).
T1 sequence (Q9H0J9 1-701): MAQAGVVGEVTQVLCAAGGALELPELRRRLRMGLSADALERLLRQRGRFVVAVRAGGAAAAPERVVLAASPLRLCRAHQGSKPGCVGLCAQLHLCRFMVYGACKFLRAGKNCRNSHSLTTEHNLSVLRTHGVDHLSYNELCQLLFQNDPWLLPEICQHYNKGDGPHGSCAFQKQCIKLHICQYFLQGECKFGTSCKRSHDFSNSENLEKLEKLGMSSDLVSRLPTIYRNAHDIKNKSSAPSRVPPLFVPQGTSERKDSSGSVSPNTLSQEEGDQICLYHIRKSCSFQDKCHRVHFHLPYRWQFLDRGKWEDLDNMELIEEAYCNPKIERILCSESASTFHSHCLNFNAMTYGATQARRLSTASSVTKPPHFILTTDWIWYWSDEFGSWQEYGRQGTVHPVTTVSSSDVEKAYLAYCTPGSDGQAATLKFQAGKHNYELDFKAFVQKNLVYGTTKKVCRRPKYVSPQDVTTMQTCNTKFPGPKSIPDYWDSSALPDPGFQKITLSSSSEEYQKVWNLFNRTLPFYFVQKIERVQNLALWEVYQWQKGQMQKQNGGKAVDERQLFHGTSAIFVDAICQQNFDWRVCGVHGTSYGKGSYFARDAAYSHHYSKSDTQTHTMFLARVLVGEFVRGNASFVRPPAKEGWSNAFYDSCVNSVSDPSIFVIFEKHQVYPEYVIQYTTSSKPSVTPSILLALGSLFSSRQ
Nature of the assay: PARP panel: ADP-ribosylation of SRPK2 using 6-a-NAD+. Format: biochemical.

In a further assay the target is T2, PARP10 (Homo sapiens, UniProt Q53GL7).
T2 construct: Human embryonic kidney (HEK) 293T cells expressing full-length PARP10; expressed in transfected cells; host or cells: HEK293T
T2 sequence (Q53GL7 1-1025): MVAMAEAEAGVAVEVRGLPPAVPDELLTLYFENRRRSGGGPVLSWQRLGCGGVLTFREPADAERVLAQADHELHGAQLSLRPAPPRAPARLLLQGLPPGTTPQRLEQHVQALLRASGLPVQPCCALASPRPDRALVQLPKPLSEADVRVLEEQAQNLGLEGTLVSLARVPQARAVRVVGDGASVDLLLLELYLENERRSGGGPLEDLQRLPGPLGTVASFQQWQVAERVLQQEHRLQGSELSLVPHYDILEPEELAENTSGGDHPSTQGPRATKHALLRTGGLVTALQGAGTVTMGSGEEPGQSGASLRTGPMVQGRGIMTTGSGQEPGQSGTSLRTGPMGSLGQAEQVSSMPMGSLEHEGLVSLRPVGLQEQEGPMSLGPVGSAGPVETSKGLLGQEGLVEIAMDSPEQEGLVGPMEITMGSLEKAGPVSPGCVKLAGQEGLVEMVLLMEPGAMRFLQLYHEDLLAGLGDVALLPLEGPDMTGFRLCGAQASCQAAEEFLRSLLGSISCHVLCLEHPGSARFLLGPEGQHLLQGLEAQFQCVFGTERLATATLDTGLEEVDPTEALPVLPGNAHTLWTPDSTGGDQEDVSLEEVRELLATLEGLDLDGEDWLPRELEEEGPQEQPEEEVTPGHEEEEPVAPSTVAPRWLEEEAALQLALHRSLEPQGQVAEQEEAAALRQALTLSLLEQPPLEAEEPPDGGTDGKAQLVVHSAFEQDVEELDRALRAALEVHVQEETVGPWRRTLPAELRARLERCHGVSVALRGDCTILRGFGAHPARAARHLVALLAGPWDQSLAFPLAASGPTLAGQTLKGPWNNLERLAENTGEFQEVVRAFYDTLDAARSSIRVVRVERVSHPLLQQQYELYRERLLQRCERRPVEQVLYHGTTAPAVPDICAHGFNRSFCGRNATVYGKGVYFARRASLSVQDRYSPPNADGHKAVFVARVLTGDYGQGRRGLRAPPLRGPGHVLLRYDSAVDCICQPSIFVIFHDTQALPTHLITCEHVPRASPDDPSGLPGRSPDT
Nature of the assay: PARP10-dependent ADP-ribosylation in HEK293T cells expressing GFP-PARP10, Western blot with ADP-ribose binding reagent. The format is cell-based. As to conditions: for EC50: GFP-PARP10, 22 at 1-100 μM for 3 h. The procedure: We next determined if 22 could inhibit PARP10-dependent ADP-ribosylation in cells. […] Med. Chem. Lett. 25, pp. 4770-4773} Human embryonic kidney (HEK) 293T cells expressing full-length PARP10 were treated with increasing concentrations of 22 (1-100 μM). […] The EC50 value varies depending on the species quantified.
HEK293T cells were transfected with GFP-PARP10 and incubated with increasing concentrations of 22 (1-100 μM) for 3 h. Lysates were prepared and auto-ADP-ribosylation of PARP10 and its high molecular weight (HMW) targets were analyzed with an ADP-ribose binding reagent (α-APDr) (FIG. 2B) Quantification of data shown in FIG. 2(a).
Background: Immunoblotting shows a protein as a band on a membrane.

The target in another assay is T3, PARP8 (Homo sapiens, UniProt Q8N3A8).
T3 sequence (Q8N3A8 1-854): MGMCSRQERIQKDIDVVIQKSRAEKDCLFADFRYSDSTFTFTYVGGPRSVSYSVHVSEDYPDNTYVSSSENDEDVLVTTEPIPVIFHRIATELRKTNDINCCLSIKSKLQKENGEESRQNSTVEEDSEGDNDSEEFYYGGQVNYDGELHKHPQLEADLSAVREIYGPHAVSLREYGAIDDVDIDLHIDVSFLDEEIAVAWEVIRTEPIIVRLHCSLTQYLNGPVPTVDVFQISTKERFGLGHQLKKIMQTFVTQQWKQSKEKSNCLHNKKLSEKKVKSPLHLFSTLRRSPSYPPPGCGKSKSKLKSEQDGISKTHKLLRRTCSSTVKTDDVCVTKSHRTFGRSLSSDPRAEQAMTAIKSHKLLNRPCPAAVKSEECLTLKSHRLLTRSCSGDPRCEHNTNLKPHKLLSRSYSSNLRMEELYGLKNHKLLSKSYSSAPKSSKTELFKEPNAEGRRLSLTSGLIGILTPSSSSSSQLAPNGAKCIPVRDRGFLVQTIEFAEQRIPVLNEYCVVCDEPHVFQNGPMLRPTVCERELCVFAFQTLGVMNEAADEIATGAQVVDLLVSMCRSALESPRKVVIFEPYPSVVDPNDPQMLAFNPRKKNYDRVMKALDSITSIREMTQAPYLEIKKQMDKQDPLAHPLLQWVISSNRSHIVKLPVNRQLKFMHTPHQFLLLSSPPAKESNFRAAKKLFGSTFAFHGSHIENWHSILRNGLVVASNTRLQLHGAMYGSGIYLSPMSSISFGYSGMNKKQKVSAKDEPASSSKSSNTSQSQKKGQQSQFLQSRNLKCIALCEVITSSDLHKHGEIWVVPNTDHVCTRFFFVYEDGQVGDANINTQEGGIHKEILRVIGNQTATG
Nature of the assay: PARP panel: ADP-ribosylation of SRPK2 using 6-a-NAD+. The format is biochemical.

Results on one molecule are retold here after US10899733B2, “Inhibitors of PARPs that catalyze mono-ADP-ribosylation” (OREGON HEALTH & SCIENCE UNIVERSITY, priority 2017, dated 2021).

Where two headings read alike, the source gives them in different places.

One may read the IC50 as the concentration that inhibits the measured activity by half. By EC50 is commonly meant the concentration giving half of the maximal effect. As for `Cc1c(-c2ccnc(C(F)(F)F)c2)ccc2c1CCNC2=O` [Compound 22, 5-methyl-6-(2-(trifluoromethyl)pyridin-4-yl)-3,4-dihydroisoquinolin-1(2H)-one], the IC50 against PARP12 (6-a-NAD+) and against PARP8 (6-a-NAD+) was > 30 µM throughout. The PARP/PARP10 at PARP12 (PARP12 over PARP10cat) and at PARP8 (PARP8 over PARP10cat) was >10 in each case. Also, on PARP10 (1-100 μM), the “inhibition of auto-ADP-ribosylation of PARP10 and PARP10-labeled targets in cells” value is listed as “dose-dependent manner”. In addition, the EC50 on PARP10 (read-out: EC50, PARP10 itself (auto-ADP-ribosylation)) amounted to 11 µM; on PARP10 (read-out: EC50, PARP10 targets (HMW species)), 2.3 µM.
